The IC50 is the midpoint of a concentration-inhibition curve. Higher therefore signals weaker potency.

One test deals with RORγ (Homo sapiens (Human), UniProt P51449). The test can be described thus: RORγ Reporter Assay (Gal4). Format: cell-based. To be noted: HEK293 cells co-transfected with RORγ LBD-Gal4 and luciferase reporter; 24 h incubation; absolute IC50. As to the method: The activity of the compounds was evaluated using a RORγ Reporter assay (also referred to as Gal4 assay). The Gal4 and the Th17 assays (another suitable assay) are both cell-based assays monitoring functional activity of the compound assayed. The HEK293 cell line is co-transfected transiently with two plasmids, one with the RORγ ligand-binding domain fused to galactose-responsive transcription factor (Gal4), and the other with the luciferase reporter gene and Gal binding sites (UAS). This construction allows to determine the RORγ activity in a cellular system through the measurement of luminescence. […] Media formulation consisted in DMEM/F-12 medium (Gibco) supplemented with 10% heat inactivated FBS (Sigma-Aldrich), non-essential aminoacids (Sigma-Aldrich), 2 mM Glutamax (Gibco) and 100 U/mL penicillin (Sigma-Aldrich). Dose-response curves with compounds were prepared in 100% DMSO and further diluted […] in culture medium. Compound solutions were added to the plate containing cells (final DMSO concentration of 0.1%) and incubated for 24 h at 37° C. and 5% CO2. Luciferase detection reagent was added to each well, and relative light units (RLUs) were quantified from each assay well using a plate reading luminometer. Values of average RLU±S.D. were computed for all treatment sets, followed by the calculations of percent-reduction of RORγ activity in response to respective test compound. The following formula was used: activity=100*[1−[x test compound/average vehicle where the theoretical minimum reduction (0% reduction).
Sequence of RORγ (P51449 269-508): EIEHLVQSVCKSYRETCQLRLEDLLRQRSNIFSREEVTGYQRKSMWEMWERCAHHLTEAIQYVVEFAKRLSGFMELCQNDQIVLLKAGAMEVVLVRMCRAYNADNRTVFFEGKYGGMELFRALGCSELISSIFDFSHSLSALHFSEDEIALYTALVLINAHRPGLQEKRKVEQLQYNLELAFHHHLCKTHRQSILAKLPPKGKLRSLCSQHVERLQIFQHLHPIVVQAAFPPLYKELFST
Background: A reporter such as luciferase makes a cellular process visible.
Turning to `CCN(CC1CCC2(CC1)COC2)c1ncnc(NC[C@@H]2CCN(CC(N)=O)C[C@H]2O)c1F` (single isomer, unassigned) [Example A6-6-1], the IC50 was 690 nM.
Still for that read-out and setting: next, `CCN(CC1CCC2(CC1)CC2(F)F)c1ncnc(NC[C@H]2CCN(CC(N)=O)C[C@@H]2O)c1F` (relative stereo) [Example A6-1-1-2, rel-2-((3R,4R)-4-(((6-(((1,1-Difluorospiro[2.5]octan-6-yl)methyl)(ethyl)amino)-5-fluoropyrimidin-4-yl)amino)methyl)-3-hydroxypiperidin-1-yl)acetamide]: 44 nM.
In the case of `CCN(CC1(F)CCC(C(F)(F)F)CC1)c1ncnc(NC[C@@H]2CCN(CC(N)=O)C[C@H]2O)c1F` (single isomer, unassigned) [Example A6-7-1], 43 nM corresponded to half-maximal inhibition (IC50). The IC50 values of the last two molecules are within 1.5-fold of each other.
On the same count and under the same terms, the result for `CCN(C[C@H]1CC[C@H](C(F)(F)F)CC1)c1ncnc(NC[C@@]2(O)CCN(CC(N)=O)C[C@@H]2O)c1F` (single isomer, unassigned) [AD-6-1, 2-((3R*,4R*)-4-(((6-(ethyl(((1r,4R)-4-(trifluoromethyl)cyclohexyl)methyl)amino)-5-fluoropyrimidin-4-yl)amino)methyl)-3,4-dihydroxypiperidin-1-yl)acetamide] reads 1.2 nM; that for `CCN(C[C@H]1CC[C@H](C(F)(F)F)CC1)c1ncnc(NC[C@@]2(O)CCN(CC(N)=O)C[C@@H]2O)c1F` (single isomer, unassigned) [AD-6-2, 2-((3R*,4R*)-4-(((6-(ethyl(((1r,4R)-4-(trifluoromethyl)cyclohexyl)methyl)amino)-5-fluoropyrimidin-4-yl)amino)methyl)-3,4-dihydroxypiperidin-1-yl)acetamide], 15 nM; that for `CCN(C[C@H]1CC[C@H](C(F)(F)F)CC1)c1ncnc2c1ccn2C[C@]1(O)CCN(CC(N)=O)C[C@H]1O` (single isomer, unassigned) [BD-5-1-2, 2-((3R*,4R*)-4-((4-(ethyl(((1r,4R)-4-(trifluoromethyl)cyclohexyl)methyl)amino)-7H-pyrrolo[2,3-d]pyrimidin-7-yl)methyl)-3,4-dihydroxypiperidin-1-yl)acetamide], 4.3 nM.
The molecule `CCN(CC1(F)CCC(C(F)(F)F)CC1)c1ncnc(NC[C@@H]2CCN(CC(N)=O)C[C@H]2O)c1F` (single isomer, unassigned) [Example A6-7-2] gave an IC50 of 69 nM. This IC50 lies about 16-fold higher than the previous one.
For `CCN(CC1CCC2(CC1)COC2)c1ncnc(NC[C@@H]2CCN(CC(N)=O)C[C@H]2O)c1F` (single isomer, unassigned) [Example A6-6-2], half-maximal inhibition (IC50) was put at 980 nM.
As for `NC(=O)CN1CC[C@@H](CNc2ncnc(N(C[C@H]3CC[C@H](C(F)(F)F)CC3)C3CCC3)c2F)[C@H](O)C1` (racemic) [Example A6-5, 2-((3RS,4RS)-4-(((6-(cyclobutyl(((1r,4R)-4-(trifluoromethyl)cyclohexyl)methyl)amino)-5-fluoropyrimidin-4-yl)amino)methyl)-3-hydroxypiperidin-1-yl)acetamide], the half-inhibitory concentration (IC50) is 17 nM.
The same measure, in the same setting: next, `CCN(C[C@H]1CC[C@H](C(F)(F)F)CC1)c1ncnc2c1ccn2C[C@]1(O)CCN(CC(N)=O)C[C@H]1O` (single isomer, unassigned) [BD-5-1-1, 2-((3R*,4R*)-4-((4-(ethyl(((1r,4R)-4-(trifluoromethyl)cyclohexyl)methyl)amino)-7H-pyrrolo[2,3-d]pyrimidin-7-yl)methyl)-3,4-dihydroxypiperidin-1-yl)acetamide]: 3.3 nM; `CCN(C[C@H]1CC[C@@]2(CC1)CC2(F)F)c1ncnc(NC[C@@H]2CCN(CC(N)=O)C[C@H]2O)c1F` (single isomer, unassigned) [Example A6-1-2-1]: 49 nM.
In the case of `CCN(C[C@H]1CC[C@]2(CC1)CC2(F)F)c1ncnc(NC[C@@H]2CCN(CC(N)=O)C[C@H]2O)c1F` (relative stereo) [Example A6-1-1-1, rel-2-((3R,4R)-4-(((6-(((1,1-Difluorospiro[2.5]octan-6-yl)methyl)(ethyl)amino)-5-fluoropyrimidin-4-yl)amino)methyl)-3-hydroxypiperidin-1-yl)acetamide], the IC50 is 35 nM.

The subject of a further test is plasma IL-17A. Briefly: In vivo IL-17A induction in anti-CD3 model in mice. As to conditions: male C57BL/6JRj mice, anti-CD3e induced plasma IL-17A, oral gavage twice daily day 0 to day 3, 3 mg/kg. As to the method: Compounds disclosed herein have also been evaluated in a mouse in vivo pharmacodynamic model (anti-CD3-induced plasma IL-17A).
Male C57BL/6JRj mice (7 week old) were purchased from Janvier Labs and housed at the animal facilities of Almirall throughout the study. Animals were allowed to condition for 5 days in their new environment at 22° C.±2° C., 55%±10% relative humidity and 12 h:12 h light:dark cycles. Animals were housed in polycarbonate cages, with free access to water and non-purified stock diet (2014 Teklad Global 14% Protein Rodent Maintenance Diet, Envigo) during the full course of the studies. […]
Mice were injected intraperitoneally with 7.5 μg of anti-CD3e (Clone 145-2C11 from Pharmingen BD) at 0 h (day 0) and 48 h (day 3) time-points. […] Plasma levels of IL-17A were measured by ELISA (R&D Systems) according to the manufacturer's instruction. Results were calculated as the percentage of reduction of plasma IL-17A versus the difference between non-induced and anti-CD3e induced groups through the formula: inhibition=100*[1−[(x−mean non-induced)/(mean control vehicle−mean non-induced)]]. The IL-17A inhibition for each treatment can be expressed as the mean for each treatment group±S.E.M. Statistical analysis of data were conducted with one-way ANOVA followed by Dunnett's multiple comparisons test when appropriate. […]
Consider `CCN(C[C@H]1CC[C@H](C(F)(F)F)CC1)c1ncnc(NC[C@@]2(O)CCN(CC(N)=O)C[C@@H]2O)c1F` (single isomer, unassigned) [AD-6-1, 2-((3R*,4R*)-4-(((6-(ethyl(((1r,4R)-4-(trifluoromethyl)cyclohexyl)methyl)amino)-5-fluoropyrimidin-4-yl)amino)methyl)-3,4-dihydroxypiperidin-1-yl)acetamide], for which the “Inhibition of IL-17A (%) at 3 mg/kg” value is on record as 95%.

The record behind these values is patent US11613532B2, “Compounds active towards nuclear receptors” (NUEVOLUTION A/S, priority 2020, dated 2023).
